Test results published in patent US10844057B2, “Process for preparing JAK inhibitors and intermediates thereof” (priority 2018, dated 2020).

Tests used:
[1] = target: JAK2 (Homo sapiens (Human), UniProt O60674); assay: Biochemical JAK kinase assay (LanthaScreen), JAK2; settings: converted from pIC50 using Cheng-Prusoff; ATP 3 μM
Protocol: Assay 1: Biochemical JAK Kinase Assays
A panel of four LanthaScreen JAK biochemical assays (JAK1, 2, 3 and Tyk2) were carried in a common kinase reaction buffer (50 mM HEPES, pH 7.5, 0.01% Brij-35, 10 mM MgCl2, and 1 mM EGTA). Recombinant GST-tagged JAK enzymes and a GFP-tagged STAT1 peptide substrate were obtained from Life Technologies.
Serially diluted compounds were pre-incubated with each of the four JAK enzymes and the substrate in white 384-well microplates (Corning) at ambient temperature for 1 h. ATP was subsequently added to initiate the kinase reactions in 10 μL total volume, with 1% DMSO. […] Kinase reactions were allowed to proceed for 1 hour at ambient temperature before a 10 μL preparation of EDTA (10 mM final concentration) and Tb-anti-pSTAT1 (pTyr701) antibody (Life Technologies, 2 nM final concentration) in TR-FRET dilution buffer (Life Technologies) was added. The plates were allowed to incubate at ambient temperature for 1 h before being read on the EnVision reader (Perkin Elmer). Emission ratio signals (520 nm/495 nm) were recorded and utilized to calculate the percent inhibition values based on DMSO and background controls.
For dose-response analysis, percent inhibition data were plotted vs. compound concentrations, and IC50 values were determined from a 4-parameter robust fit model with the Prism software (GraphPad Software). Results were expressed as pIC50 (negative logarithm of IC50) and subsequently converted to pKi (negative logarithm of dissociation constant, Ki) using the Cheng-Prusoff equation.

[2] = system: IL-2 stimulated STAT5 phosphorylation in Tall-1 human T cell line; assay: Inhibition of IL-2 stimulated pSTAT5 in Tall-1 T cells; assay type: cell-based; settings: IL-2 300 ng/mL, pSTAT5 AlphaLisa, Tall-1 cells, read-out: Tall-1 pIC50 (converted)
Protocol: Assay 2: Inhibition of IL-2 Stimulated pSTAT5 in Tall-1 T Cells
The potency of test compounds for inhibition of interleukin-2 (IL-2) stimulated STAT5 phosphorylation was measured in the Tall-1 human T cell line (DSMZ) using AlphaLisa.
Phosphorylated STAT5 was measured via the AlphaLISA SureFire Ultra pSTAT5 (Tyr694/699) kit (PerkinElmer).
Compounds were serially diluted in DMSO and dispensed acoustically to empty wells. Assay media (phenol red-free DMEM (Life Technologies) supplemented with 10% FBS (ATCC)) was dispensed (4 μL/well) and plates shaken at 900 rpm for 10 mins. Cells were seeded at 45,000 cells/well in assay media (4 μL/well), and incubated at 37° C., 5% CO2 for 1 hour, followed by the addition of IL-2 (R&D Systems; final concentration 300 ng/mL) in pre-warmed assay media (4 μL) for 30 minutes. […] The lysate was shaken at 900 rpm for 10 minutes at room temperature (RT). Phosphorylated STAT5 was measured via the pSTAT5 AlphaLisa kit (PerkinElmer). Freshly prepared acceptor bead mixture was dispensed onto lysate (5 μL) under green filtered <100 lux light. Plates were shaken at 900 rpm for 2 mins, briefly spun down, and incubated for 2 hrs at RT in the dark. Donor beads were dispensed (5 μL) under green filtered <100 lux light. Plates were shaken at 900 rpm for 2 minutes, briefly spun down, and incubated overnight at RT in the dark. Luminescence was measured with excitation at 689 nm and emission at 570 nm using an EnVision plate reader (PerkinElmer) under green filtered <100 lux light.
To determine the inhibitory potency of test compounds in response to IL-2, the average emission intensity of beads bound to pSTAT5 was measured in a human T cell line. IC50 values were determined from analysis of the inhibition curves of signal intensity versus compound concentration. Data are expressed as pIC50 (negative decadic logarithm IC50) values (mean±standard deviation).

JAK2, sequence (O60674 whole entry): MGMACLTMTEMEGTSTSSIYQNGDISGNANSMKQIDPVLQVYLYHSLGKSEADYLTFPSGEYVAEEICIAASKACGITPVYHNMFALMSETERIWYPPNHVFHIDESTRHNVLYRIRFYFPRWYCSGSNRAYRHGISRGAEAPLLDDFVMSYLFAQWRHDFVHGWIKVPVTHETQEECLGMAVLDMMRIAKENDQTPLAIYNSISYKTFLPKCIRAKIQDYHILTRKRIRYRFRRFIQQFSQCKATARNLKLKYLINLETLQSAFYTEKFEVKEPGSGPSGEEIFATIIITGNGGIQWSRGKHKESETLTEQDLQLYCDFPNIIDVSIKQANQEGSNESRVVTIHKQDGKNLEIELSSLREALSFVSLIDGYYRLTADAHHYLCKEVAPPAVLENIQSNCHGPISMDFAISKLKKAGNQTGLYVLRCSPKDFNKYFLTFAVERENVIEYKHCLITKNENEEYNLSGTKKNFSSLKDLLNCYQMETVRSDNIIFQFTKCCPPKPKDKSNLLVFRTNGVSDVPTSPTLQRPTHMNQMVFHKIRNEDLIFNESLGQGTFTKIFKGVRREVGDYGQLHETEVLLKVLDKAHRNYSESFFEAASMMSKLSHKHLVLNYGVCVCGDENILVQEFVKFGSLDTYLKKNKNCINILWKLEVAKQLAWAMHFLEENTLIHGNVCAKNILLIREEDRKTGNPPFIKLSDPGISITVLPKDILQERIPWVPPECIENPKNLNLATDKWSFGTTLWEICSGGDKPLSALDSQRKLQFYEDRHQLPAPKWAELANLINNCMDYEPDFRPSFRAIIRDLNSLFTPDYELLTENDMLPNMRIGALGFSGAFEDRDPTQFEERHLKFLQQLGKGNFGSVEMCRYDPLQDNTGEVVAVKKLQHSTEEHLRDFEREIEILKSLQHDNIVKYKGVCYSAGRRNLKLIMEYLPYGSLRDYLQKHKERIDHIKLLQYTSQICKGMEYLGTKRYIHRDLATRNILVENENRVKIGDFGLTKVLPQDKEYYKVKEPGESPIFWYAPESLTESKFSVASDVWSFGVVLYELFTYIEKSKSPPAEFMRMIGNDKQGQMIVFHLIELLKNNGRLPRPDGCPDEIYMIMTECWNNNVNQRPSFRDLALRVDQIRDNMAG

CCc1cc(O)c(F)cc1-c1ccc2c(-c3nc4c([nH]3)CN(C(C)C)[C@H](C(=O)N3CC(N(C)C)C3)C4)n[nH]c2c1 [Example 8, (S)-(3-(dimethylamino)azetidin-1-yl)(2-(6-(2-ethyl-5-fluoro-4-hydroxyphenyl)-1H-indazol-3-yl)-5-isopropyl-4,5,6,7-tetrahydro-3H-imidazo[4,5-c]pyridin-6-yl)methanone]
JAK2 pKi [1]: 10.8 | IC50 [2]: 1.58 nM
